According to US7704995B2 (Exelixis, Inc., priority 2003, dated 2010):

What was measured:
[1] = molecular target: Flt4 (Homo sapiens, UniProt P35916); assay: Kinase specificity assay (33P phosphoryl transfer, LCCA or AlphaScreen); type: biochemical; conditions: ATP close to KM; read-out: Flt4 inhibition, IC50
Procedure: (§1) Kinase activity and compound inhibition are investigated using one or more of the three assay formats described below. The ATP concentrations for each assay are selected to be close to the Michaelis-Menten constant (KM) for each individual kinase. Dose-response experiments are performed at 10 different inhibitor concentrations in a 384-well plate format. The data are fitted to the following four-parameter equation: Y=Min+(Max−Min)/(1+(X/IC50)^H) where Y is the observed signal, X is the inhibitor concentration, Min is the background signal in the absence of enzyme (0% enzyme activity), Max is the signal in the absence of inhibitor (100% enzyme activity), IC50 is the inhibitor concentration at 50% enzyme inhibition and H represents the empirical Hill's slope to measure the cooperativity. Typically H is close to unity. ^33P Phosphoryl Transfer Assay:
(§2) Greiner 384-well white, clear bottom, high binding plates are coated with 2 μg/well of protein or peptide substrate in a 50 μL volume overnight at ambient temperature. The coating buffer typically contains 40 μg/mL substrate, 22.5 mM Na2CO3, 27.5 mM NaHCO3, 150 mM NaCl and 3 mM NaN3. The coating solution is aspirated and the plates are washed once with 50 μL of assay buffer and padded dry. Subsequently compounds and enzymes are mixed with γ^33P-ATP (3.3 μCi/nmol) in a total volume of 20 uL in suitable assay buffers. The mixture is incubated at ambient temperature for 1.5-2.5 hrs and terminated by aspiration using a Molecular Devices EMBLA 96-head plate washer. The plates are subsequently washed 6-12 times with PBST or TBS buffer. Scintillation fluid (50 μl/well) is then added, the plates are sealed and activity assessed by liquid scintillation spectrometry using a Perkin Elmer MicroBeta TriLux.
(§3) In the LCCA assays, kinase activity is measured as the percent ATP consumed following the kinase reaction using luciferase-luciferin-coupled chemiluminescence. Greiner 384-well white, clear bottom, medium binding plates are used for LCCA. Briefly, the kinase reaction is initiated by mixing compounds, ATP and kinase in a 20 uL volume. The mixture is incubated at ambient temperature for 2-4 hrs. At the end of the kinase reaction, a 20 uL luciferase-luciferin mix is added and the chemiluminescent signal is read using a Wallac Victor^2 reader. The luciferase-luciferin mix consists of 50 mM HEPES, pH 7.8, 8.5 ug/mL oxalic acid (pH 7.8), 5 (or 50) mM DTT, 0.4% Triton X-100, 0.25 mg/mL coenzyme A, 63 uM AMP, 28 ug/mL luciferin and 40,000 units of light/mL luciferase. For the LCCA assays, total ATP consumption has been standardized to 25-45% and the IC50 values correlates well with those determined by radiometric assays.
(§4) AlphaScreen technology is a proximity assay which utilizes the increase in fluorescent signal when donor and acceptor beads are close in proximity. Biotinylated poly(Glu,Tyr) 4:1 is used as the kinase substrate, in conjunction with streptavidin-coated donor beads and anti-phosphortyrosine antibody PY100-coated acceptor beads. Upon phosphorylation, the peptide substrate can bind to both donor and acceptor beads giving rise to an increase in fluorescence. Compounds, ATP, biotinylated poly(Glu, Tyr) and kinases are mixed in a volume of 20 uL for 1 hr at ambient temperature using Greiner 384-well white clear bottom medium binding plates. Following incubation a 10 uL solution containing […] AlphaScreen beads, 75 mM Hepes, pH 7.4, 300 mM NaCl, 120 mM EDTA, 0.3% BSA and 0.03% Tween-20 is added to each well. After 2-16 hr incubation of the beads, plates are read in a Perkin Elmer AlphaQuest reader. The IC50 values correlates well with those of radiometric assays.

[2] = molecular target: T1, PKCe (Homo sapiens, UniProt Q02156); assay: as above; type: biochemical; conditions: ATP close to KM; read-out: PKCe inhibition, IC50
T1 sequence (Q02156 1-737): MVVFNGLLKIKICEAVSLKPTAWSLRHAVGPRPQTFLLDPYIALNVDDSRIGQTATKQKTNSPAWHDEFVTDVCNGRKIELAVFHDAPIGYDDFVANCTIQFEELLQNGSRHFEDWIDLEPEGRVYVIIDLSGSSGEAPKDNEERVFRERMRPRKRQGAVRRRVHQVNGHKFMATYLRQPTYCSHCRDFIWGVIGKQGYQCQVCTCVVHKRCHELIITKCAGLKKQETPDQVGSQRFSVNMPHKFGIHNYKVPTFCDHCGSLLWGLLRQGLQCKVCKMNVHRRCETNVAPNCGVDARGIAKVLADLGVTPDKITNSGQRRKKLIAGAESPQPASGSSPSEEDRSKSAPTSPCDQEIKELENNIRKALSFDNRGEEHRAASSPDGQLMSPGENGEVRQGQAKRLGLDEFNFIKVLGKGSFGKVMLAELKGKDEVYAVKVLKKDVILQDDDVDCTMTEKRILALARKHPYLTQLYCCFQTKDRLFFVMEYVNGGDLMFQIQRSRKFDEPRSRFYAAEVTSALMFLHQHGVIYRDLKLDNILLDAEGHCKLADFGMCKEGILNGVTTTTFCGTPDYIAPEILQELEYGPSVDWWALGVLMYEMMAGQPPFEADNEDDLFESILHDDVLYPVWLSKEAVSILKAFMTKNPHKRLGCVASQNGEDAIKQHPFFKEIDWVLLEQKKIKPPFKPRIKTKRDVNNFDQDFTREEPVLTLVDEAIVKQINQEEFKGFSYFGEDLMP
Procedure: as §1, §2, §3, §4

Sequence of Flt4 (P35916 25-1363): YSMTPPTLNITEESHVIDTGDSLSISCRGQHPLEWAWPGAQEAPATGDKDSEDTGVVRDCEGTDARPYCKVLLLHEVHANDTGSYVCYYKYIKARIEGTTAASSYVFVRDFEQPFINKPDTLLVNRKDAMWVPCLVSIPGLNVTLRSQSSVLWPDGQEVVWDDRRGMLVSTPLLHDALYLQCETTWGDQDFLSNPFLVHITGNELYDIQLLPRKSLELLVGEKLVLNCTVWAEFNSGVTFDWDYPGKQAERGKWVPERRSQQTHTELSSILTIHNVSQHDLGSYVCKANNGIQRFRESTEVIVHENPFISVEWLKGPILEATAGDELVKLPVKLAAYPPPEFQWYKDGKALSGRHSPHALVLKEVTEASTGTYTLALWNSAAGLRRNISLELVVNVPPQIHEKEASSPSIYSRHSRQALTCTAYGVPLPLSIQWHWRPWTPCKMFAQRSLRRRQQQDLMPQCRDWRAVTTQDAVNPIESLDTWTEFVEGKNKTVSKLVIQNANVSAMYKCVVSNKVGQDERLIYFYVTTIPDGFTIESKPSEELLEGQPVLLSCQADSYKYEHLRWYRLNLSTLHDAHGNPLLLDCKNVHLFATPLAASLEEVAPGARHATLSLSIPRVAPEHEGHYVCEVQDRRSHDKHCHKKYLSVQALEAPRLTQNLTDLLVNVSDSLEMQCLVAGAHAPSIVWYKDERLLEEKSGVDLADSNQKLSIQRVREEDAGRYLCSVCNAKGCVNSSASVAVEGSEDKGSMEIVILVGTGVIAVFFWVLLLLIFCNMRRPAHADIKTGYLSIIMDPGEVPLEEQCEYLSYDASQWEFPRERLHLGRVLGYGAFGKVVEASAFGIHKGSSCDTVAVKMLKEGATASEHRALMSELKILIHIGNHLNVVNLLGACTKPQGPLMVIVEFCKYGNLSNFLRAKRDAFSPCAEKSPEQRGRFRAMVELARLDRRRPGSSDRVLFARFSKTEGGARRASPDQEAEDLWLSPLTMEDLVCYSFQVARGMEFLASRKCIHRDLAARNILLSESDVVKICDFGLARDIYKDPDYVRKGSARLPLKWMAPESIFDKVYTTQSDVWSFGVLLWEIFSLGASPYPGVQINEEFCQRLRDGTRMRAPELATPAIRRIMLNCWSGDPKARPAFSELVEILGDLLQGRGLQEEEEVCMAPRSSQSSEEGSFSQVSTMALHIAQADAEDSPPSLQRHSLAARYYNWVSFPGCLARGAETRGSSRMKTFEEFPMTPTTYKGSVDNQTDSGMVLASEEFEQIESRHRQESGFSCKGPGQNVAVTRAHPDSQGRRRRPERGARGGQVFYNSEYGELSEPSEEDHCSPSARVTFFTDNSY

Compound: NC(=O)c1nc(-c2cccc3ccccc23)cnc1N [Example 2, 3-Amino-6-naphthalen-1-ylpyrazine-2-carboxamide]
- IC50 [1]: < 0.05 µM
- IC50 [2]: ≥ 10 µM
